Measured values as given in PubChem BioAssay AID248 (DTP/NCI, 2004).
Toxic doses and inconclusive results are not listed. Rule as the data show it: active = T/C of 150% or more; inactive = T/C below 125%.

Tested on: L1210 leukemia ip in BDF1 mice, survival T/C
Test: NCI In Vivo Anticancer Drug Screen. Data for tumor model L1210 Leukemia (intraperitoneal) in B6D2F1 (BDF1) mice
Conditions: endpoint: mean survival time, higher = longer survival
Procedure, shortened: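 Survival endpoint. Drug-treated group vs vehicle group, expressed as T divided by C. Tumor passaged by transplantation.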

[1] = dose: 100.0 mg/kg/injection, schedule: Q01DX001 (ip), vehicle: saline
[2] = dose: 50.0 mg/kg/injection, schedule: Q01DX009 (ip), vehicle: saline
[3] = dose: 100.0 mg/kg/injection, schedule: Q01DX009 (ip), vehicle: saline
[4] = dose: 100.0 mg/kg/injection, schedule: Q04DX002 (ip), vehicle: saline
[5] = dose: 100.0 mg/kg/injection, schedule: Q04DX003 (ip), vehicle: saline
[6] = dose: 200.0 mg/kg/injection, schedule: Q01DX009 (ip), vehicle: saline
[7] = dose: 200.0 mg/kg/injection, schedule: Q04DX002 (ip), vehicle: saline
[8] = dose: 200.0 mg/kg/injection, schedule: Q04DX003 (ip), vehicle: saline
[9] = dose: 400.0 mg/kg/injection, schedule: Q01DX009 (ip), vehicle: saline
[10] = dose: 400.0 mg/kg/injection, schedule: Q04DX002 (ip), vehicle: saline
[11] = dose: 400.0 mg/kg/injection, schedule: Q04DX003 (ip), vehicle: saline
[12] = dose: 100.0 mg/kg/injection, schedule: Q01DX001 (ip), vehicle: carboxymethylcellulose (CMC)
[13] = dose: 200.0 mg/kg/injection, schedule: Q01DX001 (ip), vehicle: carboxymethylcellulose (CMC)
[14] = dose: 400.0 mg/kg/injection, schedule: Q01DX001 (ip), vehicle: carboxymethylcellulose (CMC)
[15] = dose: 50.0 mg/kg/injection, schedule: Q01DX001 (ip), vehicle: carboxymethylcellulose (CMC)
[16] = dose: 100.0 mg/kg/injection, schedule: Q01DX009 (ip), vehicle: saline with Tween-80
[17] = dose: 200.0 mg/kg/injection, schedule: Q01DX009 (ip), vehicle: saline with Tween-80

Measured: T/C

CC1C2CCC(C2)C1C(=O)O (stereo unspecified)
inactive: dose: 100.0 mg/kg/injection, schedule: Q01DX009 (ip), vehicle: other 97 % of control | dose: 100.0 mg/kg/injection, schedule: Q04DX003 (ip), vehicle: saline with Tween-80 96 % of control | dose: 200.0 mg/kg/injection, schedule: Q01DX009 (ip), vehicle: other 109 % of control | dose: 400.0 mg/kg/injection, schedule: Q01DX009 (ip), vehicle: other 95 % of control | dose: 400.0 mg/kg/injection, schedule: Q04DX003 (ip), vehicle: saline with Tween-80 87 % of control

O=C(CCl)Nc1ccc(S(=O)(=O)c2ccc([N+](=O)[O-])cc2)cc1
inactive: dose: 30.0 mg/kg/injection, schedule: Q01DX001 (ip), vehicle: saline 94 % of control | dose: 75.0 mg/kg/injection, schedule: Q01DX009 (ip), vehicle: saline 95 % of control | dose: 75.0 mg/kg/injection, schedule: Q04DX003 (ip), vehicle: saline 92 % of control | [1] 91 % of control | dose: 150.0 mg/kg/injection, schedule: Q01DX009 (ip), vehicle: saline 96 % of control | dose: 150.0 mg/kg/injection, schedule: Q04DX003 (ip), vehicle: saline 91 % of control | dose: 300.0 mg/kg/injection, schedule: Q01DX001 (ip), vehicle: saline 94 % of control | dose: 300.0 mg/kg/injection, schedule: Q01DX009 (ip), vehicle: saline 101 % of control | dose: 300.0 mg/kg/injection, schedule: Q04DX003 (ip), vehicle: saline 94 % of control

CC(C)(C)NP(=O)(NC(C)(C)C)c1ccc([N+](=O)[O-])cc1
inactive: dose: 100.0 mg/kg/injection, schedule: Q04DX003 (ip), vehicle: acetone 100 % of control | dose: 400.0 mg/kg/injection, schedule: Q04DX003 (ip), vehicle: acetone 93 % of control

CC1CNC(=O)O1 (stereo unspecified)
inactive: dose: 25.0 mg/kg/injection, schedule: Q01DX009 (ip), vehicle: saline 97 % of control | [2] 97 % of control | dose: 50.0 mg/kg/injection, schedule: Q04DX003 (ip), vehicle: saline 106 % of control | [3] 98 % of control | [4] 100 % of control | [5] 106 % of control | [6] 95 % of control | [7] 91 % of control | [8] 101 % of control | [9] 95 % of control | [10] 91 % of control | [11] 100 % of control

CC(=O)[OH2+].CC(=O)[OH2+].[O-]c1ccc2ccccc2c1CN1CCCCC1.[O-]c1ccc2ccccc2c1CN1CCCCC1.[O]=[U+2]=[O].[O]=[U+2]=[O]
inactive: dose: 5.0 mg/kg/injection, schedule: Q01DX001 (ip), vehicle: other 105 % of control | dose: 10.0 mg/kg/injection, schedule: Q01DX001 (ip), vehicle: other 111 % of control

COP(=O)(O)CC(C)=O (tested in a mixture with another compound)
inactive: [4] 101 % of control | [7] 101 % of control | [10] 101 % of control

c1csc(C2SC(c3cccs3)SC(c3cccs3)S2)c1 (stereo unspecified)
inactive: [12] 100 % of control | [13] 92 % of control | [14] 95 % of control

COc1ccccc1NC(=O)CSC(N)=O
inactive: dose: 75.0 mg/kg/injection, schedule: Q## X000 (ip), vehicle: carboxymethylcellulose (CMC) 100 % of control | dose: 125.0 mg/kg/injection, schedule: Q## X000 (ip), vehicle: carboxymethylcellulose (CMC) 105 % of control | dose: 175.0 mg/kg/injection, schedule: Q## X000 (ip), vehicle: carboxymethylcellulose (CMC) 100 % of control | dose: 200.0 mg/kg/injection, schedule: Q01DX Z (ip), vehicle: carboxymethylcellulose (CMC) 104 % of control | dose: 400.0 mg/kg/injection, schedule: Q01DX Z (ip), vehicle: carboxymethylcellulose (CMC) 105 % of control

COc1ccc(-c2cc(Cl)c([N+](=O)[O-])cc2[N+](=O)[O-])cc1
inactive: [15] 100 % of control | [12] 107 % of control | [13] 110 % of control | [14] 102 % of control

Cc1cccc2c1OC(=O)CCC21CCCCC1=O (stereo unspecified)
inactive: [16] 101 % of control | [17] 98 % of control | dose: 400.0 mg/kg/injection, schedule: Q01DX009 (ip), vehicle: saline with Tween-80 97 % of control

CC(C)C(N)C(=O)NO (stereo unspecified)
inactive: [2] 95 % of control | [3] 100 % of control | [6] 107 % of control | [9] 110 % of control

O=C(O)C(Cl)Cc1cnc[nH]1 (stereo unspecified)
inactive: [2] 100 % of control | [3] 100 % of control | [6] 103 % of control

C/C(=C/c1ccccc1)OC(=O)c1ccccc1
inactive: [15] 87 % of control | [12] 86 % of control

C[N+]12CN3CN(CN(C3)C1)C2
inactive: [15] 104 % of control | [12] 106 % of control | [1] 100 % of control | [3] 110 % of control | [13] 101 % of control | dose: 200.0 mg/kg/injection, schedule: Q01DX001 (ip), vehicle: saline 91 % of control | [6] 114 % of control | [14] 98 % of control | dose: 400.0 mg/kg/injection, schedule: Q01DX001 (ip), vehicle: saline 96 % of control | [9] 105 % of control

O=NN1CC2CCC1CC2
inactive: dose: 2.5 mg/kg/injection, schedule: Q01DX009 (ip), vehicle: saline 109 % of control | dose: 5.0 mg/kg/injection, schedule: Q01DX009 (ip), vehicle: saline 109 % of control | dose: 10.0 mg/kg/injection, schedule: Q01DX009 (ip), vehicle: saline 102 % of control

O=C(COc1ccc2ccccc2c1)Nc1ccc[n+](Cc2ccc(S(=O)(=O)F)cc2)c1
inactive: [5] 106 % of control | [8] 90 % of control | [11] 94 % of control

CCc1cc2c(cc1C(=O)/C=C\c1cccc3ccccc13)C(C)(C)CCC2(C)C
inactive: dose: 25.0 mg/kg/injection, schedule: Q04DX002 (ip), vehicle: saline with Tween-80 89 % of control | dose: 100.0 mg/kg/injection, schedule: Q04DX002 (ip), vehicle: saline with Tween-80 89 % of control

CC1CC=C(/C=N/NC(N)=O)C(C)O1 (stereo unspecified)
inactive: dose: 50.0 mg/kg/injection, schedule: Q01DX009 (ip), vehicle: saline with Tween-80 94 % of control | [16] 88 % of control | [17] 94 % of control

CCOC(=S)c1ccc(S(=O)(=O)NC)cc1
inactive: dose: 100.0 mg/kg/injection, schedule: Q01DX001 (ip), vehicle: Klucel (hydroxypropylcellulose) (HPC) 109 % of control | dose: 200.0 mg/kg/injection, schedule: Q01DX001 (ip), vehicle: Klucel (hydroxypropylcellulose) (HPC) 100 % of control | dose: 400.0 mg/kg/injection, schedule: Q01DX001 (ip), vehicle: Klucel (hydroxypropylcellulose) (HPC) 110 % of control

CNc1nc(NC)nc(NC)n1
inactive: dose: 12.5 mg/kg/injection, schedule: Q01DX009 (ip), vehicle: Klucel (hydroxypropylcellulose) (HPC) 102 % of control | dose: 25.0 mg/kg/injection, schedule: Q01DX009 (ip), vehicle: Klucel (hydroxypropylcellulose) (HPC) 102 % of control | dose: 50.0 mg/kg/injection, schedule: Q01DX009 (ip), vehicle: Klucel (hydroxypropylcellulose) (HPC) 98 % of control | dose: 100.0 mg/kg/injection, schedule: Q01DX009 (ip), vehicle: Klucel (hydroxypropylcellulose) (HPC) 98 % of control | dose: 200.0 mg/kg/injection, schedule: Q01DX009 (ip), vehicle: Klucel (hydroxypropylcellulose) (HPC) 100 % of control
